From patent US20060247156A1, “Use of neuropeptides for ligament, cartilage, and bone healing” (priority 2004, published 2006)
Values joined by “and” are separate entries in the source; they are usually repeats but may differ in a detail not shown here. Equal values may be shown once. “Also recorded” adds a separate entry of the source.

Experiments:
MCL [1] = test: MCL organ culture with capsaicin, mechanical testing; parameters: species or system rat
[2] = tested on: MCL neuropeptide concentration (SP, CGRP, NPY, VIP); test: Neuropeptides in MCL after capsaicin (RIA, immunofluorescence); assay type: in vivo, rat
Experimental: (§1) Injections were made into a site between the scapulae. […] Into Group 2 (n=6 animals) and Group 4 (n=9 animals), a similar volume of sterile saline was injected via the same method. All other medications were given as in the treated groups. […] Contralateral legs were used as sham controls.
Neuropeptide Radioimmunoassay: Four MCLs from all groups were used for quantification of neuropeptide concentrations via RIA. MCLs were homogenized using a mortar and pestle.
Each ligament was then incubated in two […] appropriately tagged (AMCA or Rhodamine; Chemicon, Temecula, Calif.) secondary antibodies.

intact and healing MCLs = test: Intact and healing MCL after in vivo capsaicin: mechanical testing, healing, histomorphology; parameters: species or system rat
Experimental: In Group 2, control rats (n=6) were injected with an equal volume of 0.9% saline. […] These rats were also divided into two groups. […] After 3 days of treatment, both groups underwent a surgical rupture of one MCL. Contralateral MCLs were used as sham controls. All rats were maintained in their normal cage environment for 10 days. Then, they were sacrificed as noted above. Femur-MCL-tibia (FMT) complexes were then harvested and tested as above.
as §1, with “scapulae. […] Bupivicaine was also administered subcutaneously at the site of the capsaicin injection.” for “scapulae.”, “groups. There were no signs of infection, discomfort, or unusual behavior in the treated rats.” for “groups.”
Mechanical Testing: Mechanical testing was performed as described in the previous examples. Briefly, animal hind limbs from all groups (n=4 Group 1; n=4 Group 2; n=4 Group 3; n=4 Group 4) were disarticulated at the hip joint and stored at −80° C. until testing. On the day of testing, MCLs including intact femoral and tibial bone sections were excised for ex vivo testing. Ligament thickness and width was measured optically, and MCL area was estimated with elliptical geometry. For strain measurements, optical markers were placed onto the ligament tissue near the insertion sites. A small preload of 0.1N was applied to the ligaments in order to obtain a uniform starting point. The ligaments were then preconditioned to 1% strain for 10 cycles. After preconditioning, ligaments were pulled to failure at a rate of ˜10% per second. Tissue displacement was obtained using video dimensional analysis using equations (1) and (2) infra. The mechanical properties that were examined in this study were maximum force, ultimate stress, strain at failure, elastic modulus, and area. Statistical analysis was performed using an unpaired t-test (p=0.05) to analyze differences between the control and treatment group.
(§2) Ligaments were immediately fixed in formalin fixative for three days at room temperature. Specimens were embedded in paraffin, sectioned (6 μm), mounted on slides, and stained with hematoxylin and eosin (H&E).

MCL [3] = settings: cited from earlier work
[4] = tested on: ruptured MCL of a surgical sympathectomy (SS) rat; test: Local neuropeptide delivery to ruptured MCL of surgical sympathectomy (SS) rats: mechanical testing, histomorphology; assay type: in vivo
From the text: Surgical Procedure: Thirteen female Wistar rats (306 g to 339 g) were divided into two groups: surgical sympathectomy (SS) or sham control. All rats were anesthetized with isofluorane as described in Example 1. A transperitoneal approach was used. The lower abdomen was shaved and prepared for surgery. A skin incision approximately 25 mm long was made. Fascia and abdominal muscle were incised. Abdominal organs were displaced. With the aid of a dissecting microscope, fascia surrounding the deep muscle tissue was separated (with minimal disruption to the muscle tissue) to expose the post-ganglionic sympathetic nerves. The L1-4 nerves were isolated and transected (with removal of a 5 mm segment of the nerves) in the surgical sympathectomy group only. In both groups, the deep muscle tissue was returned to its initial position and abdominal organs were replaced. Abdominal muscles and skin were closed in two layers with a 3-0 or 4-0 continuous dexon suture. Rats from each group (n=4 SS; n=3 controls) then underwent a complete surgical rupture of the MCL to one knee. The contra-lateral knee underwent sham surgery. […] Two weeks post-surgery, rats were sacrificed using an overdose of pentobarbitone (150 mg/kg).
Local delivery of NPs and NP inhibitors is important to identify the specific roles of individual NPs on healing tissues. An animal model for the local delivery of NPs has been developed and is presented in this Example. Briefly, NP infused mini-osmotic pumps were implanted subcutaneously into the back of rats. A small catheter running from the pump to an intramuscular space above the MCL was secured to the rat.
To test whether autonomic NPs improve healing in SS-ruptured MCLs, three female Wistar rats (193 g to 204 g) were given VIP locally to the MCL. Vasoactive intestinal peptide (75 pg/μl) was infused into a mini-osmotic pump and was delivered to a ruptured MCL of a surgical sympathectomy (SS) rat (see surgical procedure above). Within minutes of surgical intervention, all rats recovered and had normal movement and behavior (grooming, feeding, etc.). […] The results are presented graphically in FIG. 6.
Animal Model and Surgery: Thirty-seven female Wistar rats (199-298 g) were divided into five groups. […] Rats that were designated to receive SP or CGRP underwent bilateral femoral nerve transection (see previous examples). Rats that were designated to receive NPY, VIP, or a combination of NPY and VIP underwent bilateral surgical sympathectomy. Following surgical nerve transection, each rat also underwent bilateral MCL rupture. Neuropeptides were then delivered ruptured MCLs unilaterally. Neuropeptide infused mini-osmotic pumps (Alzet Corp.) were implanted subcutaneously into the back of each rat. A small catheter running from the pump was run to an intramuscular space above the MCL and was secured. To ensure that neuropeptides are delivered directly to the MCL, rhodamine labeled SP was delivered via a catheter to the MCL (n=2 rats).
Within minutes of surgical intervention, all rats recovered and had normal movement and behavior (grooming, feeding, etc.). To test whether autonomic NPs improve healing in SS ruptured MCLs, seven rats were given VIP, seven rats were given NPY, and seven rats were given a combination of VIP and NPY. […]
Mechanical Testing: Mechanical testing was performed as described in the preceding examples. Briefly, animal hind limbs from all groups (n=4 for all groups) were disarticulated at the hip joint and stored at −80° C. until testing. On the day of testing, MCLs including intact femoral and tibial bone sections were excised for ex vivo testing. Ligament thickness and width was measured optically, and MCL area was estimated with elliptical geometry. For strain measurements, optical markers were placed onto the ligament tissue near the insertion sites. […]

[5] = tested on: Bovine nucleus pulposus cells; test: Bovine nucleus pulposus (intervertebral disc) cell proliferation; assay type: cell-based; settings: CGRP 10 ng/ml, NPY (mcg/ml, SP 5 mcg/ml); day 1, day 2, day 3
Experimental: Bovine calf spines and femoral condyles were obtained from a slaughterhouse and freshly transported to the laboratory. Nucleus pulposus tissue was carefully dissected, avoiding annular and endplate cartilage tissues, from each disc. Articular cartilage from femoral condyles was dissected in the same manner. […] Cells were harvested by overnight digestion with hyaluronidase and collagenase, followed by filtration. Cells were plated at a density of 1×10^5 cells/ml and incubated at 37° C. in 5% CO2 and 95% air in the presence of each neuropeptide or media only (control). At various time points in growth, cells were collected for proliferation and glycosaminoglycan (GAG) production assays. Varying concentrations of NPs were examined.
Well established colorimetric and luminescent assays (CellTiter 96® AQueous Non-radioactive Cell Proliferation and CellTiter-Glo® Luminescent Cell Viability Assays, Promega, Madison, Wis.) were used to quantify the effect of each NP on cell proliferation. In addition, corresponding cell cultures during growth were digested with papain to release glycosaminoglycans (GAGs). Dimethyl methylene blue (DMMB) colorimetric assays were used to quantify the amount of GAGs in each culture.
Multiple samples for test and control groups were performed simultaneously. Statistical analyses using one way analysis of variance (ANOVA) with large degrees of freedom (n=12 for GAG assays; n=24 for proliferation assays) were performed to establish the significance of differences between test groups and control groups for each day of growth in culture.
The effect of neuropeptides on intervertebral disc cell proliferation was examined in order to elucidate further the pathophysiology of degenerative disc disease. Bovine nucleus pulposus cells were incubated with the same neuropeptides.

[6] = tested on: bovine articular chondrocytes; test: Bovine chondrocytes proliferation assay (CellTiter 96 AQueous One); assay type: cell-based; settings: CGRP 100 pg/ml, NPY 50 ng/ml, SP 500 pg/ml, VIP 1 ng/ml
Experimental: (§3) Cartilage chunks were then digested at 37° C. in DMEM containing 0.05% hyaluronidase for 30 minutes, followed by 0.05% collagenase digestion overnight. The digests were filtered through 40-micron nylon mesh and centrifuged at 600×g for 20 minutes. The cell pellets were then resuspended in DMEM and counted using a hemacytometer.
(§4) Cells were plated at 1×10^5 cells/well in 12-well plates (n=9) for proteoglycan assays and at 2×10^4 cells/well in 96-well plates (n=16) for proliferation assays. The culture volumes were 1 ml/well in 12-well plates and 100 μl/well in 96-well plates.
(§5) The plates were incubated at 37° C. in a humidified CO2 incubator for 3 days to allow the cells to recover from the harvesting procedure.
(§6) On Day 3 of treatment, 20 μl of CellTiter 96® AQueous One Solution Cell Proliferation Assay (Promega Corporation, Madison, Wis.) was added to each well of the 96-well cultures for 60 minutes, and cells in the 12-well plates were digested with 0.125 units of papain/well overnight. After the 60-minute incubation, the absorbance of the color generated by the cells in the 96-well plates was measured at wavelength 490 nm.

[7] = tested on: bovine articular chondrocytes; test: Bovine chondrocytes glycosaminoglycan assay (DMMB); assay type: cell-based; settings: NPY 50 ng/ml; Day 3 of treatment; individual wells
Experimental: as §3, §4, §5, §6
Following papain digestion of the cultures in 12-well plates, the amount of glycosaminoglycan (representative of proteoglycans) in each well was measured using the dimethylmethylene blue (DMMB) dye-binding assay. The results were statistically analyzed and plotted.

healing MCL = test: Local neuropeptide delivery to normally innervated healing MCL: mechanical testing, histomorphology; assay type: in vivo, rat
Experimental: Animal Model and Surgery: Forty female Wistar rats (200-250 g) were divided into five groups.
All rats underwent bilateral MCL rupture. Neuropeptides were then delivered ruptured MCLs unilaterally. Neuropeptide infused mini-osmotic pumps (Alzet Corp.) were implanted subcutaneously into the back of each rat. A small catheter running from the pump was run to an intramuscular space above the MCL and was secured.
Mechanical Testing: Mechanical testing was performed as described in Chapter 2. Briefly, animal hind limbs from all groups (n=5 for all groups) were disarticulated at the hip joint and stored at −80° C. until testing. On the day of testing, MCLs including intact femoral and tibial bone sections were excised for ex vivo testing. Ligament thickness and width was measured optically, and MCL area was estimated with elliptical geometry. For strain measurements, optical markers were placed onto the ligament tissue near the insertion sites. A small preload of 0.1N was applied to the ligaments in order to obtain a uniform starting point. The ligaments were then preconditioned to 1% strain for 10 cycles. After preconditioning, ligaments were pulled to failure at a rate of 10% per second.
Tissue displacement was obtained using video dimensional analysis using equations (1) and (2) supra. The mechanical properties that were examined in this study were maximum force, ultimate stress, strain at failure, elastic modulus, and area. Statistical analysis was performed using paired ttests to compare each treated MCL to its contralateral control (alpha=0.05).
as §2

[8] = Group 3: ruptured MCL, capsaicin 50 mg/kg/day for three days, two weeks of healing
[9] = second study, Group 3: capsaicin 50 mg/kg/day x3 days, ruptured MCL, healing
[10] = Example 7: normally innervated rats, bilateral MCL rupture, mini-osmotic pump (SP 75, CGRP 10, NPY 65, VIP 100 pg/100 μl), two weeks of healing

Compound: COc1cc(CNC(=O)CCCC/C=C/C(C)C)ccc1O [capsaicin]
- ultimate stress (MCL [1]; organ culture 10 days with capsaicin in media): 66.0±4.7 MPa
- ultimate force (MCL [1]; organ culture with capsaicin-supplemented media): no changes
- CGRP concentration in MCL (RIA) ([2]; Group 1: intact MCL, capsaicin 50 mg/kg/day s.c. for three days, 10 days after last injection): 0.04 pmol/g
- CGRP concentration in MCL (RIA) [2, 8]: 0.042 pmol/g
- NPY concentration in MCL (RIA) [2, 8]: 3.09 pmol/g
- SP concentration in MCL (RIA) [2, 8]: 0.09 pmol/g
- VIP concentration in MCL (RIA) [2, 8]: 1.07 pmol/g
- histomorphology (H&E) of healing MCL (intact and healing MCLs; capsaicin treated, two weeks of healing): hypercellular and disorganized
- healing of MCL and skin wounds (in words) (intact and healing MCLs; capsaicin-treated rats with MCL rupture): one MCL failed to heal; also recorded: healed poorly
- ultimate stress of the ruptured ligament (intact and healing MCLs; first study: capsaicin 50 mg/kg, MCL rupture after 3 days of treatment, n=3): 4.6 MPa
- ultimate stress of intact MCLs (intact and healing MCLs; first study: capsaicin 50 mg/kg, intact MCL, 10 days): substantially reduced
- abnormalities in movement, body weight, or behavior (intact and healing MCLs; following initial recovery from capsaicin injection): No abnormalities
- failure force, ultimate stress, failure strain, area, and elastic modulus of intact MCL (intact and healing MCLs; second study, Group 1 vs Group 2, intact MCL): not significantly changed
- failure force (intact and healing MCLs; [9]): 4.5±2.7 N
- ultimate stress (intact and healing MCLs; [9]): 2.7±1.9 MPa

Compound: insulin-like growth factor-1
- healed strength relative to intact ligament (MCL [3]; Provenzano et al., following 30 days of delivery): 66%

Compound: neuropeptide Y [NPY]
- failure force ([4]; Example 6: SS rats, bilateral MCL rupture, mini-osmotic pump (NPY 65 pg/100 μl; VIP 100 pg/100 μl; or both), two weeks of healing): 12.2±0.9 N
- histomorphology (H&E) of healing MCL ([4]; SS rats, VIP or NPY, two weeks): more aligned
- healing response of MCLs relative to intact controls ([4]; neuropathic ruptured MCL, two weeks of healing): 70%
- disc cell proliferation compared to controls [5]: stimulate disc cell proliferation
- proliferation of articular chondrocytes compared to controls (in words) [6]: stimulate proliferation
- Glycosaminoglycan Assay [7]: 7.783 μg/dish and 9.327 μg/dish and 6.2383 μg/dish and 8.055 μg/dish and 7.964 μg/dish and 5.148 μg/dish and 5.784 μg/dish and 7.874 μg/dish and 8.328 μg/dish
- histomorphology (H&E) of healing MCL (healing MCL; Example 7, two weeks of healing): less of an effect on tissue alignment
- failure force (healing MCL; [10]): 7.7±1.1 N
- ultimate stress (healing MCL; [10]): 5.6±2.2 MPa

Compound: platelet-derived growth factor [PDGF]
- healed MCL strength relative to intact ligament strength (MCL [3]; Woo et al., after 6 weeks of healing): 50%
